According to publication PMC8025909, “Repurposing of Sitagliptin- Melittin Optimized Nanoformula against SARS-CoV-2; Antiviral Screening and Molecular Docking Studies” (Pharmaceutics, 2021):

Target: T1, SARS-CoV-2 3CL Protease (3C-like protease, Mpro, 3CLpro) (Severe acute respiratory syndrome coronavirus 2, UniProt P0DTD1)
T1 construct: gene rep; full-length mature nsp5 a.a; supplier apparently BPS Bioscience
Assay: biochemical

N[C@@H](CC(=O)N1CCn2c(nnc2C(F)(F)F)C1)Cc1cc(F)c(F)cc1F [sitagliptin]
IC50: 6.914 ± 0.034 µM
